How the values were obtained:
MCLR [1] = biological target: T1, MCLR (Cereibacter sphaeroides, UniProt Q3J5L6); details: Mg2+; pH 8.5; two closed active sites; not intentionally added, modelled from density
T1 construct: gene mcl1

MCLR [2] = biological target: T1, MCLR; details: glyoxylate and Mg2+ present; pH 8.5; one of the closed active sites
MCLR [3] = biological target: T1, MCLR; details: 0.5 mM acetyl-CoA, 100 mM pyruvate, 5 mM MgCl2, MOPS/KOH pH 7.5
[4] = biological target: the molecule itself; assay: SEC; Superdex 200 10/30 GL, 20 mM Tris/HCl pH 7.5, 2 mM MgCl2, 100 mM NaCl, 4°C; molecular weight against protein standards

With `O=CC(=O)O` [GLX, glyoxylate] the “X-ray crystal structure, glyoxylate carried over from E. coli, 2.1 A” value (MCLR [1]) was “active sites contained electron density that allowed modeling of glyoxylate molecules together with magnesium ions”.

`CCC(=O)SCCNC(=O)CCNC(=O)[C@H](O)C(C)(C)COP(=O)(O)OP(=O)(O)OC[C@H]1O[C@@H](n2cnc3c(N)ncnc32)[C@H](O)[C@@H]1OP(=O)(O)O` [PCO, propionyl-CoA] was tested, and the “X-ray crystal structure, crystal soaking, 2.1 A” value (MCLR [2]) was “one of these closed active sites was also occupied by propionyl-CoA”.

`CC(=O)C(=O)O` [PYR, pyruvate] was tested, and the “reversed phase HPLC of citramalyl-CoA formation” value (MCLR [3]) was “formation of citramalyl-CoA was confirmed by reversed phase HPLC analysis”.

B1: malyl-CoA lyase of Chloroflexus aurantiacus (enzyme, Chloroflexus aurantiacus OK-70-fl, UniProt S5N020 1-348, looked up)
chain: MRKLAHNFYKPLAIGAPEPIRELPVRPERVVHFFPPHVEKIRARIPEVAKQVDVLCGNLEDAIPMDAKEAARNGFIEVVKATDFGDTALWVRVNALNSPWVLDDIAEIVAAVGNKLDVIMIPKVEGPWDIHFVDQYLALLEARHQIKKPILIHALLETAQGMVNLEEIAGASPRMHGFSLGPADLAASRGMKTTRVGGGHPFYGVLADPQEGQAERPFYQQDLWHYTIARMVDVAVAHGLRAFYGPFGDIKDEAACEAQFRNAFLLGCTGAWSLAPNQIPIAKRVFSPDVNEVLFAKRILEAMPDGSGVAMIDGKMQDDATWKQAKVIVDLARMIAKKDPDLAQAYGL
notes: Malyl-CoA lyase of Chloroflexus aurantiacus OK-70-fl, GenBank AGR55786; gene amplified from chromosomal DNA with primers upstream (NdeI at the start codon) and downstream of the gene, cloned into pT7-7; 348 residues (models run from Arg2 to Leu348, the native C-terminus); calculated 38.4 kDa per monomer; Hexamer (dimer of trimers); No tag is named for this construct; also called MCLC; MCL; …
B1 was tested, and the “stoichiometry N” value [4] was 6.

B2: malyl-CoA lyase of Rhodobacter sphaeroides (enzyme, Rhodobacter sphaeroides 2.4.1)
chain: MSFRLQPAPPARPNRCQLFGPGSRPALFEKMAASAADVINLDLEDSVAPDDKAQARANIIEAINGLDWGRKYLSVRINGLDTPFWYRDVVDLLEQAGDRLDQIMIPKVGCAADVYAVDALVTAIERAKGRTKPLSFEVIIESAAGIAHVEEIAASSPRLQAMSLGAADFAASMGMQTTGIGGTQENYYMLHDGQKHWSDPWHWAQAAIVAACRTHGILPVDGPFGDFSDDEGFRAQARRSATLGMVGKWAIHPKQVALANEVFTPSETAVTEAREILAAMDAAKARGEGATVYKGRLVDIASIKQAEVIVRQAEMISA
notes: Malyl-CoA lyase of Rhodobacter sphaeroides 2.4.1, GenBank ACJ71673; model 4L9Z holds Ser2 or Phe3 through Met315 with only the C-terminal three residues missing (lid domain residues 264-318); 36.8 kDa per monomer; Hexamer (dimer of trimers); The His10 tag had no electron density in the crystals; also called MCLR; MCL; source: E. coli BL21(DE3), purified (Ni-Sepharose, gel filtration); not shown: …
With B2 the “stoichiometry N” value [4] was 6.

From publication PMC3832036, “The crystal structures of the tri-functional Chloroflexus aurantiacus and bi-functional Rhodobacter sphaeroides malyl-CoA lyases and comparison with CitE-like superfamily enzymes and malate synthases” (BMC Structural Biology, 2013)
